For assay [1], the target named is T1, AChE from electric eel (Electrophorus electricus) (Electrophorus electricus, UniProt O42275).
T1 construct: AChE (from electric eel) and BChE (from equine serum); purchased Sigma, St. Louis, MO, USA; host or cells: electric eel (animal source)
Put plainly: In vitro AChE inhibition, modified Ellman's method. The assay is classed as biochemical. How it is done:
(§1) The ability of all prepared compounds to inhibit AChE from electric eel (Electrophorus electricus) and BChE from equine serum (both purchased from Sigma, St. Louis, MO, USA) was determined in vitro using a modified Ellman’s method. […] The Ellman’s method is widely used for measuring cholinesterase activity and the effectivity of ChEIs. It is a simple, rapid and direct method to determine SH and –S–S– groups content in proteins. Cholinesterase activity is measured indirectly by quantifying the concentration of 5-thio-2-nitrobenzoic acid (TNB) ion formed in the reaction between disulfide reagent 5,5′-dithiobis-2-nitrobenzoic acid (DTNB) and thiocholine, a product of substrate (i.e., acetylthiocholine, ATCh) hydrolysis catalyzed by cholinesterase.
(§2) All tested compounds were dissolved in DMSO (concentration 0.01 M) and diluted in demineralized water (concentrations 0.001 M and 0.0001 M). The ability of tested compounds to inhibit AChE (from electric eel) and BChE (from equine serum) was determined using the modified Ellman’s method at 25 °C in the presence of phosphate buffered saline (PBS, 0.1 M, pH 7.4) in a glass cuvette with 1 cm optical path. The enzyme activity in total reaction mixture (2 mL) was 0.2 U/mL, the concentration of substrate ATCh 40 μM and the concentration of DTNB 0.1 mM for all reactions. The IC50 value was obtained from the dependence of v0/vi on the concentration of the tested compound (inhibitor), where v0 is the reaction rate of uninhibited reaction and vi is the reaction rate of inhibited reaction (for the given concentration of the inhibitor). First, v0 was determined. Into the cuvette PBS (0.1 M, pH 7.4), DTNB and ATCh were placed. The enzymatic reaction was started by adding the enzyme. […] The measurement was performed in triplicate at least, and average v0 was determined. Then, vi (for the given concentration of the inhibitor) was determined. Into the cuvette DTNB, ATCh, a chosen volume of the suitably diluted inhibitor (to achieve the required concentration of the inhibitor in the total reaction mixture) and a certain volume of PBS (to achieve the total volume of the reaction mixture 2 mL after adding the enzyme) were placed. The enzymatic reaction was started by adding the enzyme. […] For determination of IC50 values, twelve different concentrations of inhibitor were used and each measurement was performed in triplicate at least.
On the technique in general: Ellman's reagent forms a yellow product with free thiols.

Assay [2] has as its target T2, BChE from equine serum (Equus caballus, UniProt P81908).
T2 construct: BChE (from equine serum); purchased Sigma, St. Louis, MO, USA; host or cells: equine serum
In words: In vitro BChE inhibition, modified Ellman's method. The assay is classed as biochemical. The note with it: for SI (index selectivity) = IC50 (AChE)/IC50 (BChE): ratio AChE/BChE, higher = more selective to BChE. How it is done: as §1, §2

For assay [3], the system named is human monocytic leukemia THP-1 cells. Put plainly: In vitro cytotoxicity assay (WST-1). The assay is classed as cell-based. The note with it: 24 h, highest tested concentration 30 μM, read-out: tox. IC50. As for the experimental part: The cytotoxicity was evaluated as the IC50 value (compound concentration causing 50% inhibition of cell population proliferation) (see Table 1). […] Based on these observations, it can be concluded that the discussed compounds can be considered as non-toxic agents for subsequent design of novel drugs.
Human monocytic leukemia THP-1 cells were used for in vitro toxicity assay. Cells were obtained from the European Collection of Cell Cultures (ECACC, Salisbury, UK) and routinely cultured in RPMI 1640 (Lonza, Verviers, Belgium) medium supplemented with 10% fetal bovine serum (FBS, Sigma), 2% L-glutamine, 1% penicillin and streptomycin (Lonza, Verviers, Belgium) at 37 °C with 5% CO2. Cells were passaged at approximately one week intervals. The cytotoxicity of the compounds was determined using a WST-1 assay kit (Roche Diagnostics, Mannheim, Germany) according to the manufacturer’s instructions. The tested compounds were dissolved in DMSO and added in five increasing concentrations (0.37, 1.1, 3.3, 10, and 30 μM) to the cell suspension in the culture RPMI 1640 medium. The maximum concentration of DMSO (Sigma) in the assays never exceeded 0.1%. Subsequently, the cells were incubated for 24 h at 37 °C with 5% CO2. For WST-1 assays, cells were seeded into 96-well plates (5 × 10^4 cells/well in 100 μL culture medium) in triplicate in serum-free RPMI 1640 medium, and measurements were taken 24 h after the treatment with the compounds. The median inhibition concentration values, IC50, were deduced through the production of a dose-response curve. All data were evaluated using the GraphPad Prism 5.00 software (GraphPad Software, San Diego, CA, USA).

Structures are written as SMILES. Where only a bound is given, the exact number is not on record here.

T2 sequence (P81908 whole entry): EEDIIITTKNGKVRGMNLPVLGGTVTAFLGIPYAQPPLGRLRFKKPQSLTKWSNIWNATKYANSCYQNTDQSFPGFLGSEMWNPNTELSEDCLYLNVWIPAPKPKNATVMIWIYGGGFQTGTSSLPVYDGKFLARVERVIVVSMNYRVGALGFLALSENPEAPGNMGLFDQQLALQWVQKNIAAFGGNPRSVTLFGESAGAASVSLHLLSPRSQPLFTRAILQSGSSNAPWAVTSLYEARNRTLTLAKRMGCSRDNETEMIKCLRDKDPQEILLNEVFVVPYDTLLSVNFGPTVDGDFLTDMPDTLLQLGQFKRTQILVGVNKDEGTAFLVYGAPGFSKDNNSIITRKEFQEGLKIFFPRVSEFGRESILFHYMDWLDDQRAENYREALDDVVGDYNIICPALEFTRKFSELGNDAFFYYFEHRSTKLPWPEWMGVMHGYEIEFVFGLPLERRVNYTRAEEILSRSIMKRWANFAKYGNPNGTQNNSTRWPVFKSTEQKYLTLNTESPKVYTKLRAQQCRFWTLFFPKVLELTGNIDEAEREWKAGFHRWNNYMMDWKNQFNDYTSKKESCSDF
T1 sequence (O42275 24-633): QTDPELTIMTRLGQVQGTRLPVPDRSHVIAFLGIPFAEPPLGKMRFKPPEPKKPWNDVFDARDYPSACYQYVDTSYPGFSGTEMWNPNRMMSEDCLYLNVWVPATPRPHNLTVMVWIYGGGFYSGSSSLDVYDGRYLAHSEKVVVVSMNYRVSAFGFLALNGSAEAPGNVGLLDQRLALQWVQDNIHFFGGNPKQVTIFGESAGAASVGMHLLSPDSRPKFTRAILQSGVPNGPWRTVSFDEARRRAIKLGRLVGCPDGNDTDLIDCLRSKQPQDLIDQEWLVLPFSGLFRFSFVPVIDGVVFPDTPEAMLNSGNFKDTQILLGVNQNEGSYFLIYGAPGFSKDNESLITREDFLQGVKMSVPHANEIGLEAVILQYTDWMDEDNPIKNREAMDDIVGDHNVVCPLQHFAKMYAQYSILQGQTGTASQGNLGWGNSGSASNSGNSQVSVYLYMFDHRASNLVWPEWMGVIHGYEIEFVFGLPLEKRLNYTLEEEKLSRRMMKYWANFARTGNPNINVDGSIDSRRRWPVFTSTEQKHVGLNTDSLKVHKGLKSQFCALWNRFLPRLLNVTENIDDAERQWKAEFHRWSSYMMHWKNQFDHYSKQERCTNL

As for `O=C(Nc1ccc(Cl)cc1)[C@@H]1CCCN1C(=O)OCc1ccccc1` [Compound 5c, Benzyl (2S)-2-[(4-chlorophenyl)carbamoyl]pyrrolidine-1-carboxylate], the values for the half-inhibitory concentration (IC50) in assay [1], in assay [2] and in assay [3] were 77.3 ± 3.8 µM, 147.3 ± 1.18 µM and > 30 µM, respectively. Also, the “SI (index selectivity) = IC50 (AChE)/IC50 (BChE)” value (shortened to “SI (index selectivity) = IC50”) in assay [2] amounted to 0.52.

With `O=C(Nc1cccc(O)c1)[C@@H]1CCCN1C(=O)OCc1ccccc1` [Compound 9b, Benzyl (2S)-2-[(3-hydroxyphenyl)carbamoyl]pyrrolidine-1-carboxylate], the IC50 in assay [1] is 122 ± 1.38 µM; in assay [2] it was 86.22 ± 0.4 µM; in assay [3], > 30 µM. Also, the “SI (index selectivity) = IC50” value in assay [2] is 1.41.

Take `O=C(Nc1ccccc1[N+](=O)[O-])[C@@H]1CCCN1C(=O)OCc1ccccc1` [Compound 8a, Benzyl (2S)-2-[(2-nitrophenyl)carbamoyl]pyrrolidine-1-carboxylate]: the IC50 in assay [1] was 152.21 ± 0.01 µM; in assay [2], 48.7 ± 0.8 µM; in assay [3] it was > 30 µM. The “SI (index selectivity) = IC50” value in assay [2] amounted to 3.13.

As to `O=C(Nc1cccc(Br)c1)[C@@H]1CCCN1C(=O)OCc1ccccc1` [Compound 6b, Benzyl (2S)-2-[(3-bromophenyl)carbamoyl]pyrrolidine-1-carboxylate], the IC50 is 74.16 ± 0.2 µM in assay [1], 47.68 ± 0.08 µM in assay [2] and > 30 µM in assay [3]. In addition, in assay [2], the “SI (index selectivity) = IC50” value stood at 1.56.

For `O=C(Nc1ccccc1C(F)(F)F)[C@@H]1CCCN1C(=O)OCc1ccccc1` [Compound 7a, Benzyl (2S)-2-{[2-(trifluoromethyl)phenyl]carbamoyl}pyrrolidine-1-carboxylate], the half-inhibitory concentration (IC50) in assay [1] is 73.2 ± 2.88 µM; in assay [2], 44.9 ± 1.66 µM; in assay [3] it was > 30 µM. Further, the “SI (index selectivity) = IC50” value in assay [2] is 1.63.

For the molecule `Cc1cccc(NC(=O)[C@@H]2CCCN2C(=O)OCc2ccccc2)c1` [Compound 3b, Benzyl (2S)-2-[(3-methylphenyl)carbamoyl]pyrrolidine-1-carboxylate], the IC50 in assay [1] was 81.06 ± 0.03 µM; in assay [2], 115 ± 4.83 µM; in assay [3], > 30 µM. Besides, the “SI (index selectivity) = IC50” value in assay [2] turned out to be 0.71.

As for `Cc1ccccc1NC(=O)[C@@H]1CCCN1C(=O)OCc1ccccc1` [Compound 3a, Benzyl (2S)-2-[(2-methylphenyl)carbamoyl]pyrrolidine-1-carboxylate], the values for the IC50 in assay [1], in assay [2] and in assay [3] were 61.9 ± 1.35 µM, 98.3 ± 5.88 µM and > 30 µM, respectively. Moreover, the “SI (index selectivity) = IC50” value in assay [2] is recorded as 0.63.

`O=C(Nc1ccccc1F)[C@@H]1CCCN1C(=O)OCc1ccccc1` [Compound 4a, Benzyl (2S)-2-[(2-fluorophenyl)carbamoyl]pyrrolidine-1-carboxylate]: the concentration for half-maximal inhibition (IC50) is 51.9 ± 0.76 µM in assay [1], 60 µM in assay [2] and > 30 µM in assay [3]. Further, the “SI (index selectivity) = IC50” value in assay [2] is given as 0.86.

For the molecule `O=C(Nc1ccc(O)cc1)[C@@H]1CCCN1C(=O)OCc1ccccc1` [Compound 9c, Benzyl (2S)-2-[(4-hydroxyphenyl)carbamoyl]pyrrolidine-1-carboxylate], the results for the IC50 in assay [1], in assay [2] and in assay [3] were 91.08 ± 0.27 µM, 133 ± 0.39 µM and > 30 µM, respectively. Further, in assay [2], the “SI (index selectivity) = IC50” value came out at 0.68.

For `O=C(Nc1cccc([N+](=O)[O-])c1)[C@@H]1CCCN1C(=O)OCc1ccccc1` [Compound 8b, Benzyl (2S)-2-[(3-nitrophenyl)carbamoyl]pyrrolidine-1-carboxylate], the results for the half-maximal inhibitory concentration (IC50) in assay [1], in assay [2] and in assay [3] were 65 ± 0.97 µM, 55.9 ± 0.63 µM and > 30 µM, respectively. The “SI (index selectivity) = IC50” value in assay [2] is on record as 1.16.

Regarding `Cc1ccc(NC(=O)[C@@H]2CCCN2C(=O)OCc2ccccc2)cc1` [Compound 3c, Benzyl (2S)-2-[(4-methylphenyl)carbamoyl]pyrrolidine-1-carboxylate], the IC50 in assay [1] was 123.4 ± 0.44 µM; in assay [2] it was 153 ± 2.29 µM; in assay [3], > 30 µM. Also, the “SI (index selectivity) = IC50” value in assay [2] is given as 0.81.

In the case of `O=C(Nc1cccc(Cl)c1)[C@@H]1CCCN1C(=O)OCc1ccccc1` [Compound 5b, Benzyl (2S)-2-[(3-chlorophenyl)carbamoyl]pyrrolidine-1-carboxylate], the results for the IC50 in assay [1], in assay [2] and in assay [3] were 48.27 ± 0.11 µM, 64.2 ± 7.14 µM and > 30 µM, respectively. Moreover, in assay [2], the “SI (index selectivity) = IC50” value is listed as 0.75.

In the case of `O=C(Nc1ccc([N+](=O)[O-])cc1)[C@@H]1CCCN1C(=O)OCc1ccccc1` [Compound 8c, Benzyl (2S)-2-[(4-nitrophenyl)carbamoyl]pyrrolidine-1-carboxylate], the values for the concentration for half-maximal inhibition (IC50) in assay [1], in assay [2] and in assay [3] were 84.52 ± 0.06 µM, 58.75 ± 0.27 µM and > 30 µM, respectively. Besides, the “SI (index selectivity) = IC50” value in assay [2] was determined as 1.44.

With `O=C(Nc1ccc(F)cc1)[C@@H]1CCCN1C(=O)OCc1ccccc1` [Compound 4c, Benzyl (2S)-2-[(4-fluorophenyl)carbamoyl]pyrrolidine-1-carboxylate], the results for the IC50 in assay [1], in assay [2] and in assay [3] were 87.2 ± 1 µM, 58.1 ± 1.39 µM and > 30 µM, respectively. The “SI (index selectivity) = IC50” value in assay [2] is reported as 1.50.

With `O=C(Nc1cccc(F)c1)[C@@H]1CCCN1C(=O)OCc1ccccc1` [Compound 4b, Benzyl (2S)-2-[(3-fluorophenyl)carbamoyl]pyrrolidine-1-carboxylate], the values for the IC50 in assay [1], in assay [2] and in assay [3] were 69.88 ± 0.21 µM, 34.61 ± 0.11 µM and > 30 µM, respectively. Besides, the “SI (index selectivity) = IC50” value in assay [2] came to 2.02.

On to `O=C(Nc1ccccc1Cl)[C@@H]1CCCN1C(=O)OCc1ccccc1` [Compound 5a, Benzyl (2S)-2-[(2-chlorophenyl)carbamoyl]pyrrolidine-1-carboxylate], for which the results for the IC50 in assay [1], in assay [2] and in assay [3] were 46.4 ± 1.05 µM, 53.47 ± 0.52 µM and > 30 µM, respectively. For the same molecule, the “SI (index selectivity) = IC50” value in assay [2] was 0.87.

For `O=C(Nc1ccc(Br)cc1)[C@@H]1CCCN1C(=O)OCc1ccccc1` [Compound 6c, Benzyl (2S)-2-[(4-bromophenyl)carbamoyl]pyrrolidine-1-carboxylate], the half-inhibitory concentration (IC50) in assay [1] was 81.32 ± 0.67 µM; in assay [2], 28.2 ± 0.5 µM; in assay [3] it was > 30 µM. Besides, in assay [2], the “SI (index selectivity) = IC50” value amounted to 2.88.

With `COc1cccc(NC(=O)[C@@H]2CCCN2C(=O)OCc2ccccc2)c1` [Compound 2b, Benzyl (2S)-2-[(3-methoxyphenyl)carbamoyl]pyrrolidine-1-carboxylate], the IC50 is 126 ± 2.79 µM in assay [1], 58.47 ± 0.42 µM in assay [2] and > 30 µM in assay [3]. In addition, the “SI (index selectivity) = IC50” value in assay [2] turned out to be 2.16.

With `O=C(Nc1ccc(C(F)(F)F)cc1)[C@@H]1CCCN1C(=O)OCc1ccccc1` [Compound 7c, Benzyl (2S)-2-{[4-(trifluoromethyl)phenyl]carbamoyl}pyrrolidine-1-carboxylate], the figures for the IC50 in assay [1], in assay [2] and in assay [3] were 88.6 ± 1.6 µM, 75.5 ± 2.94 µM and > 30 µM, respectively. The “SI (index selectivity) = IC50” value in assay [2] came to 1.17.

One may read the IC50 as the point on the concentration scale where inhibition reaches its midpoint.

These data come from article PMC6150311, “Proline-Based Carbamates as Cholinesterase Inhibitors” (Molecules : A Journal of Synthetic Chemistry and Natural …, 2017).
